# Publication PMC12282101, “Heat shock protein 90 chaperone activity is required for hepatitis A virus replication” (Journal of Virology, 2025)
# Structures can show the parent of a compound that is named as a salt. Where two headings read alike, the source gives them in different places.
# What was measured:
# 18f-NLuc reporter virus = experiment: microbe, parasite or virus in culture; type: cell-based, Hepatitis A virus; conditions: for activity at 10 µM: Hepatovirus A, Huh-7.5.1, 72 h, read-out: Normalized HAV production
# Huh-7.5.1 cells [1] = conditions: 10 µM
# Huh-7.5.1 cells [2] = experiment: Cell viability in the chemical screen (Cell TiterGlo); conditions: 10 µM compound, 72 h
structure (smiles),measurement,setting,value
Cc1c(-c2cnccn2)ssc1=S [Oltipraz],activity at 10 µM,18f-NLuc reporter virus,113%
same,Viability Percent DMSO,Huh-7.5.1 cells [1],90 Percent DMSO
Clc1ccc(C(Cn2ccnc2)OCc2ccsc2Cl)c(Cl)c1 (centres unmarked) [Vagistat],activity at 10 µM,18f-NLuc reporter virus,109%
same,Viability Percent DMSO,Huh-7.5.1 cells [1],93 Percent DMSO
CC(C)OC(=O)[C@H](C)N[P@](=O)(CO[C@H](C)Cn1cnc2c(N)ncnc21)Oc1ccccc1 [Tenofovir alafenamide],activity at 10 µM,18f-NLuc reporter virus,141%
same,Viability Percent DMSO,Huh-7.5.1 cells [1],75 Percent DMSO
NC(=O)N1CCC(CC(=O)N2CCC([C@H]3c4ncc(Br)cc4CCc4cc(Cl)cc(Br)c43)CC2)CC1 [Lonafarnib],Viability Percent DMSO,Huh-7.5.1 cells [2],167 Percent DMSO
same,activity at 10 µM,18f-NLuc reporter virus,18%
CCOC(=O)c1c(CSc2ccccc2)n(C)c2cc(Br)c(O)c(CN(C)C)c12.Cl [Arbidol hydrochloride],Viability Percent DMSO,Huh-7.5.1 cells [2],105 Percent DMSO
same,Normalized HAV production,18f-NLuc reporter virus,0.78
O=C(Nc1ncc([N+](=O)[O-])s1)c1ccccc1O [Tizoxanide],Viability Percent DMSO,Huh-7.5.1 cells [2],72 Percent DMSO
same,activity at 10 µM,18f-NLuc reporter virus,113%
COC(=O)c1cc(OC)c2c(c1-c1c(CO)cc(OC)c3c1OCO3)OCO2 [Bicyclol],Viability Percent DMSO,Huh-7.5.1 cells [2],115 Percent DMSO
same,activity at 10 µM,18f-NLuc reporter virus,105%
C=CC1=C(C(=O)O)N2C(=O)[C@@H](NC(=O)/C(=N\O)c3csc(N)n3)[C@H]2SC1 [Cefdinir],Viability Percent DMSO,Huh-7.5.1 cells [2],101 Percent DMSO
same,activity at 10 µM,18f-NLuc reporter virus,97%
CC1(C)CC[C@]2(C(=O)O)CC[C@]3(C)C(=CC[C@@H]4[C@@]5(C)CC[C@H](O)C(C)(C)[C@@H]5CC[C@]43C)[C@@H]2C1 [Oleanolic Acid],Viability Percent DMSO,Huh-7.5.1 cells [2],118 Percent DMSO
same,activity at 10 µM,18f-NLuc reporter virus,82%
Cc1nc(N(C)C(=O)Cc2ccc(-c3ccccn3)cc2)sc1S(N)(=O)=O [Pritelivir],Viability Percent DMSO,Huh-7.5.1 cells [2],127 Percent DMSO
same,activity at 10 µM,18f-NLuc reporter virus,78%
CC1(C)CC[C@]2(C(=O)O)CC[C@]3(C)C(=CC[C@@H]4[C@@]5(C)CCC(=O)C(C)(C)[C@@H]5CC[C@]43C)[C@@H]2C1 [Oleanonic Acid],Viability Percent DMSO,Huh-7.5.1 cells [2],1.23 Percent DMSO
same,activity at 10 µM,18f-NLuc reporter virus,935%
COc1cc2c(cc1Cc1cccc(Cl)c1F)c(=O)c(C(=O)O)cn2[C@H](CO)C(C)C [Elvitegravir],Viability Percent DMSO,Huh-7.5.1 cells [2],118 Percent DMSO
same,activity at 10 µM,18f-NLuc reporter virus,95%
Nc1ccn([C@@H]2CS[C@H](CO)O2)c(=O)n1 [Lamivudine],Viability Percent DMSO,Huh-7.5.1 cells [2],120 Percent DMSO
same,activity at 10 µM,18f-NLuc reporter virus,86%
CC(C)c1nc(CN(C)C(=O)N[C@@H](CCN2CCOCC2)C(=O)N[C@H](CC[C@H](Cc2ccccc2)NC(=O)OCc2cncs2)Cc2ccccc2)cs1 [Cobicistat],Viability Percent DMSO,Huh-7.5.1 cells [2],176 Percent DMSO
same,activity at 10 µM,18f-NLuc reporter virus,34%
O=C1C[C@@H](c2ccc(O)cc2)Oc2cc(O)cc(O)c21 [Naringenin],Viability Percent DMSO,Huh-7.5.1 cells [2],112 Percent DMSO
same,activity at 10 µM,18f-NLuc reporter virus,86%
O=C(O)P(=O)(O)O [Foscarnet sodium],Viability Percent DMSO,Huh-7.5.1 cells [2],94 Percent DMSO
same,activity at 10 µM,18f-NLuc reporter virus,109%
O=C(/C=C/c1ccc(O)cc1)c1ccc(O)cc1O [Isoliquiritigenin],Viability Percent DMSO,Huh-7.5.1 cells [2],100 Percent DMSO
same,activity at 10 µM,18f-NLuc reporter virus,104%
CCn1cc(C(=O)O)c(=O)c2cc(F)c(N3CCNCC3)nc21 [Enoxacin],Viability Percent DMSO,Huh-7.5.1 cells [2],159 Percent DMSO
same,activity at 10 µM,18f-NLuc reporter virus,89%
C=C1CC[C@@H]2[C@](C)(CO)[C@H](O)CC[C@@]2(C)[C@@H]1C/C=C1/C(=O)OC[C@H]1O [Andrographolide],Viability Percent DMSO,Huh-7.5.1 cells [2],106 Percent DMSO
same,activity at 10 µM,18f-NLuc reporter virus,86%
O=c1[nH]c(=O)n([C@H]2C[C@H](O)[C@@H](CO)O2)cc1I [Dendrid],Viability Percent DMSO,Huh-7.5.1 cells [2],103 Percent DMSO
same,activity at 10 µM,18f-NLuc reporter virus,102%
C=C(C)[C@@H]1CC[C@]2(CO)CC[C@]3(C)[C@H](CC[C@@H]4[C@@]5(C)CC[C@H](O)C(C)(C)[C@@H]5CC[C@]43C)[C@@H]12 [Betulin],Viability Percent DMSO,Huh-7.5.1 cells [2],123 Percent DMSO
same,activity at 10 µM,18f-NLuc reporter virus,119%
COC(=O)N[C@H](C(=O)N1CCC[C@H]1c1nc(-c2ccc(-c3ccc(-c4c[nH]c([C@@H]5CCCN5C(=O)[C@@H](NC(=O)OC)C(C)C)n4)cc3)cc2)c[nH]1)C(C)C [Daclatasvir dihydrochloride],Viability Percent DMSO,Huh-7.5.1 cells [2],125 Percent DMSO
same,activity at 10 µM,18f-NLuc reporter virus,88%
CC(=O)N(CC(O)CO)c1c(I)c(C(=O)NCC(O)CO)c(I)c(C(=O)NCC(O)CO)c1I (centres unmarked) [Iohexol],Viability Percent DMSO,Huh-7.5.1 cells [2],74 Percent DMSO
same,activity at 10 µM,18f-NLuc reporter virus,157%
Cc1cccc(C)c1N(CC(=O)Nc1ccc(-c2ncon2)cc1)C(=O)C1CCS(=O)(=O)CC1 [Amenamevir],Viability Percent DMSO,Huh-7.5.1 cells [2],116 Percent DMSO
same,activity at 10 µM,18f-NLuc reporter virus,109%
COc1cnc(-n2cnc(C)n2)c2c1c(C(=O)C(=O)N1CCN(C(=O)c3ccccc3)CC1)cn2COP(=O)(O)O [Fostemsavir],Viability Percent DMSO,Huh-7.5.1 cells [2],129 Percent DMSO
same,activity at 10 µM,18f-NLuc reporter virus,92%
C[C@H](Cn1cnc2c(N)ncnc21)OCP(=O)(O)O [Tenofovir],Viability Percent DMSO,Huh-7.5.1 cells [2],118 Percent DMSO
same,activity at 10 µM,18f-NLuc reporter virus,128%
O=C(Nc1ccccc1)c1ccccc1O [Salicylanilide],Viability Percent DMSO,Huh-7.5.1 cells [2],120 Percent DMSO
same,activity at 10 µM,18f-NLuc reporter virus,76%
CN(C)c1ccc(C(=C2C=CC(=[N+](C)C)C=C2)c2ccc(N(C)C)cc2)cc1 [Crystal Violet],Viability Percent DMSO,Huh-7.5.1 cells [2],20 Percent DMSO
same,activity at 10 µM,18f-NLuc reporter virus,0.413%
CC(C)OC(=O)C1=CN(C(=O)c2ccc(F)c(F)c2)CC(C)(C)c2c1[nH]c1ccccc21 [Turofexorate Isopropyl],Viability Percent DMSO,Huh-7.5.1 cells [2],161 Percent DMSO
same,activity at 10 µM,18f-NLuc reporter virus,100%
O=c1c2ccccc2[se]n1-c1ccccc1 [Ebselen],Viability Percent DMSO,Huh-7.5.1 cells [2],123 Percent DMSO
same,activity at 10 µM,18f-NLuc reporter virus,56%
CC(C)c1cc(Oc2c(Cl)cc(-n3nc(C#N)c(=O)[nH]c3=O)cc2Cl)n[nH]c1=O [MGL3196],Viability Percent DMSO,Huh-7.5.1 cells [2],118 Percent DMSO
same,activity at 10 µM,18f-NLuc reporter virus,136%
CN(C)[C@@H]1C(O)=C(C(N)=O)C(=O)[C@@]2(O)C(O)=C3C(=O)c4c(O)cccc4[C@@](C)(O)[C@H]3C[C@@H]12 [Tetracycline],Viability Percent DMSO,Huh-7.5.1 cells [2],114 Percent DMSO
same,activity at 10 µM,18f-NLuc reporter virus,89%
C[C@@H](c1ncncc1F)[C@](O)(Cn1cncn1)c1ccc(F)cc1F [Voriconazole],Viability Percent DMSO,Huh-7.5.1 cells [2],123 Percent DMSO
same,activity at 10 µM,18f-NLuc reporter virus,133%
COc1ccnc(C[S+]([O-])c2nc3ccc(-n4cccc4)cc3[n-]2)c1C.[Na+] (centres unmarked) [Ilaprazole sodium],Viability Percent DMSO,Huh-7.5.1 cells [2],159 Percent DMSO
same,Normalized HAV production,18f-NLuc reporter virus,0.66
C[C@H]1CO[C@@H]2Cn3cc(C(=O)NCc4ccc(F)cc4F)c(=O)c(O)c3C(=O)N12 [Cabotegravir],Viability Percent DMSO,Huh-7.5.1 cells [2],170 Percent DMSO
same,activity at 10 µM,18f-NLuc reporter virus,49%
CC[C@@H](CO)NCCN[C@@H](CC)CO [Ethambutol dihydrochloride],Viability Percent DMSO,Huh-7.5.1 cells [2],112 Percent DMSO
same,activity at 10 µM,18f-NLuc reporter virus,83%
CO/N=C(\C(=O)N[C@@H]1C(=O)N2C(C(=O)O)=C(COC(C)=O)CS[C@H]12)c1csc(N)n1 [Cefotaxime sodium],Viability Percent DMSO,Huh-7.5.1 cells [2],113 Percent DMSO
same,activity at 10 µM,18f-NLuc reporter virus,80%
Cc1c(O)cccc1C(=O)N[C@@H](CSc1ccccc1)[C@H](O)CN1C[C@H]2CCCC[C@H]2C[C@H]1C(=O)NC(C)(C)C [Nelfinavir Mesylate],Viability Percent DMSO,Huh-7.5.1 cells [2],88 Percent DMSO
same,activity at 10 µM,18f-NLuc reporter virus,69%
O=C1CCC[C@@H]2[C@H]3CCC[N+]4([O-])CCC[C@@H](CN12)[C@@H]34 (some centres unmarked) [Oxymatrine],Viability Percent DMSO,Huh-7.5.1 cells [2],92 Percent DMSO
same,activity at 10 µM,18f-NLuc reporter virus,100%
O=c1[nH]cnc2c1ncn2[C@H]1CC[C@@H](CO)O1 [Didanosine],Viability Percent DMSO,Huh-7.5.1 cells [2],108 Percent DMSO
same,activity at 10 µM,18f-NLuc reporter virus,155%
